This passage reports inhibition, viability and IC50 results from publication PMC5623949, “Exploiting the 2-Amino-1,3,4-thiadiazole Scaffold To Inhibit Trypanosoma brucei Pteridine Reductase in Support of Early-Stage Drug Discovery” (ACS Omega, 2017).

Each structure is given as a SMILES string. Where two headings read alike, the source gives them in different places.

The target in one series is T1, hERG (Homo sapiens, UniProt Q12809).
T1 construct: gene KCNH2
On the set-up: hERG inhibition liability assay. The method, then:
(§1) Independent of the effect of any antiparasitic potential of compounds, they were evaluated using a panel of early-toxicity assays comprising cytotoxicity (A549, human lung adenocarcinoma epithelial cell line and WI-38, human lung fibroblasts), mitochondrial toxicity (786-O, human renal carcinoma cell line), hERG inhibition,[31] cytochrome P450 inhibition (CYP1A2, CYP2C9, CYP2C19, CYP2D6, and CYP3A4),[31] and Aurora B kinase inhibition. […] For the two compounds active against TbPTR1 (4m and 4o), IC50 against hERG, cytochrome P450, and mitochondrial toxicity were determined (reported in Supporting Information). We observed that the dose of compounds 4m, 4o, 4c, and 3k was 4 μM in the potentiation assays. […] In the case of hERG, CYP2D6, CYP2A9, CYP2C19, and mitochondrial toxicity, there is a selectivity index of around 3–4 fold, thus showing an acceptable profile.  Figure 10 Summary heat map of the in vitro assays to determine possible liability issues for all synthesized compounds. Assays were performed to assess inhibition of hERG and five CYP isoforms (1A2, 2C9, 2C19, 2D6, and 3A4), growth inhibition of A549 and W1-38 cell lines, and mitochondrial toxicity at 10 μM. The hDHFR inhibition was determined at 100 μM. The data, expressed as percentage values, were organized by adopting a color code for rapid and intuitive visualization. The ideal compound should have all tiles blue, indicating a safe toxicological profile for progressing into the development pipeline. The cells are colored from blue (100% of cell growth at the tested concentration) to red (0% of cell growth at the tested concentration) for A549 and W1-38 and from blue (0% of inhibitory activity at the tested concentration) to red (100% of inhibitory activity at the tested concentration) for CYP isoforms, hERG, hDHFR, and mitochondrial toxicity.

Another series concerns the target T2, TbPTR1 (Trypanosoma brucei brucei, UniProt O76290).
T2 construct: made in house
T2 sequence (O76290 1-268): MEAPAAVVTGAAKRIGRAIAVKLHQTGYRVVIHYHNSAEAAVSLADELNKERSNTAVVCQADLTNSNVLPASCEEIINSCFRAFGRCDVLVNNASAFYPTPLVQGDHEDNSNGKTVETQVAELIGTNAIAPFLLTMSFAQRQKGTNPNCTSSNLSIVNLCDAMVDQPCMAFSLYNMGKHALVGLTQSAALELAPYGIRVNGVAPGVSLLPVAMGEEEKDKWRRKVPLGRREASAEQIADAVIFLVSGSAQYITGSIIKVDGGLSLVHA
Nature of the series: biochemical. The note with it: for inhibition at 50 µM: 50 μM compound, read-out: % Inhibition TbPTR1 at 50 μM.

The next series has as its system 786-O. Nature of the series: cells. Also on record: mitochondrial toxicity in 786-O renal carcinoma cells. Conditions: Homo sapiens, 786-0; mitochondrial toxicity. The procedure: as §1
A short description of series [1]: in vitro. On the set-up: cytotoxicity, per cent cell growth of WI-38 fibroblasts. The note with it: human, wi-38 cells; read-out: % cell growth W1-38 at 10uM. The method, then:
as §1

Series [2] in a line: in vitro. Also on record: cytotoxicity, per cent cell growth of A549 cells. Conditions: human, a549 cells; read-out: % cell growth A549 at 10uM. The procedure:
as §1

The target of a further series is CYP2C19 (Homo sapiens, UniProt P33261). Nature of the series: in vitro. Also on record: cytochrome P450 isoform inhibition liability assay. The method, then:
as §1

For a further series, the target named is CYP2C9 (Homo sapiens, UniProt P11712). Nature of the series: in vitro. On the set-up: cytochrome P450 isoform inhibition liability assay. The method, then: as §1
CYP2C9, sequence (P11712 whole entry, canonical isoform): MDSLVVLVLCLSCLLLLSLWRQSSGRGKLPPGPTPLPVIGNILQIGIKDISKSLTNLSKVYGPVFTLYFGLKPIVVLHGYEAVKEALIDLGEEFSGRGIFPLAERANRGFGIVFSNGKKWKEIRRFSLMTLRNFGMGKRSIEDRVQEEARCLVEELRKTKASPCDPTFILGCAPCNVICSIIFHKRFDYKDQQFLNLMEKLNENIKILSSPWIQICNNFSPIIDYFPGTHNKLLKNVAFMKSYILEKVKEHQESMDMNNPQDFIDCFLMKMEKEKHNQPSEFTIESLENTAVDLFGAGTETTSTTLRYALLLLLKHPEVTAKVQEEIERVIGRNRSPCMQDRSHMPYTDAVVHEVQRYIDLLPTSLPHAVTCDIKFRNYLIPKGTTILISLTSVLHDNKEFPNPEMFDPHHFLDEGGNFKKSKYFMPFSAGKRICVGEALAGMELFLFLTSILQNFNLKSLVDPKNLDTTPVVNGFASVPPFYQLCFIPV
The next series concerns the target CYP3A4 (Homo sapiens, UniProt P08684). Nature of the series: in vitro. Also on record: cytochrome P450 isoform inhibition liability assay. The procedure:
as §1

The next series deals with CYP2D6 (Homo sapiens, UniProt P10635). Nature of the series: in vitro. On the set-up: cytochrome P450 isoform inhibition liability assay. The method, then: as §1
CYP2D6, sequence (P10635 whole entry, canonical isoform): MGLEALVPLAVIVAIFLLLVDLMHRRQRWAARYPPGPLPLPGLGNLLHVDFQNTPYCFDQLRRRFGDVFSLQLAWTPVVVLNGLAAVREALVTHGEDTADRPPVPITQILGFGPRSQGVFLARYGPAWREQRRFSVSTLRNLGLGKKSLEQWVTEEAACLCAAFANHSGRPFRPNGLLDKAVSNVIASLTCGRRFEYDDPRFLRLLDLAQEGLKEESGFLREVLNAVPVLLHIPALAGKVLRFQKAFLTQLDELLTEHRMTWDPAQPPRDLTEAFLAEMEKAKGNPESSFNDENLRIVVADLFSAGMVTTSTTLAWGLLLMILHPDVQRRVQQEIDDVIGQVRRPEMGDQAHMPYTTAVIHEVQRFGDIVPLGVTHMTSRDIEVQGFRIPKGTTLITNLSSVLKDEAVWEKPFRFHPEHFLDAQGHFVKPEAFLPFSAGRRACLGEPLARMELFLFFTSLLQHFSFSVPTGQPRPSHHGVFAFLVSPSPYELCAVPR
The next series deals with T3, CYP1A2 (Homo sapiens, UniProt P05177).
T3 sequence (P05177 1-516): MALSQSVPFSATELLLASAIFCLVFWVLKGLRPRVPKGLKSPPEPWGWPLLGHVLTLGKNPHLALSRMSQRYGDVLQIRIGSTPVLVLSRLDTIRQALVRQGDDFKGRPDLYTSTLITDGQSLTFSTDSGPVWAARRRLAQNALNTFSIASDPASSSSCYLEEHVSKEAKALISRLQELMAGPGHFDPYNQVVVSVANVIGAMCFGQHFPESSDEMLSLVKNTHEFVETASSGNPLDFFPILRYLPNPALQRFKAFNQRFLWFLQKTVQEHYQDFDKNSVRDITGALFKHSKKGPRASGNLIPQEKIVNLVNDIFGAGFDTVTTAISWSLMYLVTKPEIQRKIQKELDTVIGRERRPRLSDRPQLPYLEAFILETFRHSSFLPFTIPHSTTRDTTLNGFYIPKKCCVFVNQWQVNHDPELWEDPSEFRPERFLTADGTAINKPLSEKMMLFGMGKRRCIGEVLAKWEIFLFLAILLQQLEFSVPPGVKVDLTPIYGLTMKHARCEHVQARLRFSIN
The series is described as follows: in vitro. Also on record: cytochrome P450 isoform inhibition liability assay. The method, then:
as §1

The test system of series [3] is T. b. brucei Lister 427 bloodstream forms. The series is described as follows: In vitro activity against T. brucei (HTS SYBR Green I growth inhibition assay). The class given is cell-based, Trypanosoma brucei brucei. Conditions: Trypanosoma brucei, 50 μM; standard deviation within ±10% of the value; read-out: % Inhibition T. brucei at 50 μM.

T1 sequence (Q12809 whole entry): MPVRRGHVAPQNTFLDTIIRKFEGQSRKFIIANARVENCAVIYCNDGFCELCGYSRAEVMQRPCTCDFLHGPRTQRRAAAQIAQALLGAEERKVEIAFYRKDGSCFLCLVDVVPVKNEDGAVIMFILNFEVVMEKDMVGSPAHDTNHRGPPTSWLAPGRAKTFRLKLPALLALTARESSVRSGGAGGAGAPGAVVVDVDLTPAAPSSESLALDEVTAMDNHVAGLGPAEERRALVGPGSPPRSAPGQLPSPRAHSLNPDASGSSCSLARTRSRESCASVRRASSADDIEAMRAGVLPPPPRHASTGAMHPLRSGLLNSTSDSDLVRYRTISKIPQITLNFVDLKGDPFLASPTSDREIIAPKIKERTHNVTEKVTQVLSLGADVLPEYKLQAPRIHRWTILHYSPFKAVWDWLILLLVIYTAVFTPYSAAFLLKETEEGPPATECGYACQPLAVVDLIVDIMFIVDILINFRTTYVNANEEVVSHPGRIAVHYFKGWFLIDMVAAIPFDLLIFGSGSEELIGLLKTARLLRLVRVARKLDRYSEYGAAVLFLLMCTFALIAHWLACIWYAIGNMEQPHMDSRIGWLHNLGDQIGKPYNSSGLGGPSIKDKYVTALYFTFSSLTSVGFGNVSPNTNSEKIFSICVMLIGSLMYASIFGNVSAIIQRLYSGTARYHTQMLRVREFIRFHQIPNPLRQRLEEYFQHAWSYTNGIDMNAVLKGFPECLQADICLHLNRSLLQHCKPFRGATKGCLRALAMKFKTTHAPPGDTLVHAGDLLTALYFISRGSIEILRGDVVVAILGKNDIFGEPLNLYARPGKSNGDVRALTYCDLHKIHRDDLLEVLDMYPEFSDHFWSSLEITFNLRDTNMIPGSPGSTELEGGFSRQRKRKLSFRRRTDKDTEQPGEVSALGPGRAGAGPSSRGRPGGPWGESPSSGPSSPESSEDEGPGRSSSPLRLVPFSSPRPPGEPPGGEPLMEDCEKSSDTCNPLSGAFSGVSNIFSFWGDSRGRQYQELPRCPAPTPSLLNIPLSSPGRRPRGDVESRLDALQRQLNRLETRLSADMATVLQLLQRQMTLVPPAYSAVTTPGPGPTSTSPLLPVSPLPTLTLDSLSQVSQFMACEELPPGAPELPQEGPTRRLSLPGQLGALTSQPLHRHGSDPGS
CYP2C19, sequence (P33261 whole entry, canonical isoform): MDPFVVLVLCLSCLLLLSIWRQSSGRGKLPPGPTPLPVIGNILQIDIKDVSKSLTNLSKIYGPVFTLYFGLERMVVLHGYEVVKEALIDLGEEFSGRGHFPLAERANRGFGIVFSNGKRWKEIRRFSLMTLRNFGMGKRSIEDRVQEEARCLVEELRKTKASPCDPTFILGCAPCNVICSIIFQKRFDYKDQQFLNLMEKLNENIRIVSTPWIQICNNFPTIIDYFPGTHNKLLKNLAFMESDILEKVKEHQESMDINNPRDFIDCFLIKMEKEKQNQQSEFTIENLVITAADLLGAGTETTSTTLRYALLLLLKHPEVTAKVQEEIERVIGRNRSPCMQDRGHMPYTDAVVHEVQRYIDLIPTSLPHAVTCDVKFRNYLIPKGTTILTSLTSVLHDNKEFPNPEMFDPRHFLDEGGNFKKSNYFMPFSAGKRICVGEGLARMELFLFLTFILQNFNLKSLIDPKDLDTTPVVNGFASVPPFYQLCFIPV
CYP3A4, sequence (P08684 whole entry, canonical isoform): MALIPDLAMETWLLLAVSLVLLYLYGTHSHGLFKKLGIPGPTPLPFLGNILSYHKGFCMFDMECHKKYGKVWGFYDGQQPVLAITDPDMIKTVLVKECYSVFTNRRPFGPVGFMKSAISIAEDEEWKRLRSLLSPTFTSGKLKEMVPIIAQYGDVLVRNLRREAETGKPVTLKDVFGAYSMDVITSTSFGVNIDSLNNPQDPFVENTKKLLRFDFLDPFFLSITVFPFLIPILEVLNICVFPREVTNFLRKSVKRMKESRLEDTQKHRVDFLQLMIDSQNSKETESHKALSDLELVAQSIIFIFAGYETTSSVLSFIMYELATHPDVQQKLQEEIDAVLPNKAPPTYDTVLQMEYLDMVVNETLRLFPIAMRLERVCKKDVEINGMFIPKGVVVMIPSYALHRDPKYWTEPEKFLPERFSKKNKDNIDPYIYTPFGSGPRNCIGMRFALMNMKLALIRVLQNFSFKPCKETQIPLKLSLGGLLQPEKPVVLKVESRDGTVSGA

For orientation: inhibition means the drop in the measured response relative to a control, in per cent. In the case of `COc1cc(CNc2nnc(N)s2)cc(OC)c1OC` [4k], the inhibition at 10 µM on hERG was 21.3 ± 27.9%; in the series with 786-O, -1.9 ± 14.9%; at CYP2C19, 0.2 ± 10.3%; on CYP2C9, 20.2 ± 2.5%; at CYP3A4, 11.4 ± 3.6%; on CYP2D6 it was 23.6 ± 2.4%. For the same molecule, the inhibition at 10 µM at CYP1A2 is 22.3 ± 4.1%. For the same molecule, the inhibition at 50 µM (on TbPTR1; in series [3]) was under 0% in each case. The values for the viability at 10 µM in “in vitro [1]” and in “in vitro [2]” were 71.2 ± 3.6% and 116 ± 3.8%, respectively.
As to `Nc1nnc(NCc2ccccc2)s1` [4b], the inhibition at 10 µM at hERG was 1.8 ± 1.3%; with 786-O, 9 ± 14.8%; on CYP2C19 it was -32.1 ± 5.7%; on CYP2C9, -14.7 ± 3.3%; at CYP3A4, -9.5 ± 6.2%; at CYP2D6, -32.7 ± 6.7%. The inhibition at 10 µM at CYP1A2 was -17.2 ± 3.6%. For the same molecule, the values for the inhibition at 50 µM (at TbPTR1; in series [3]) were 39.5 ± 0.9% and under 0%, respectively. The viability at 10 µM in “in vitro [1]” was 124 ± 19%; in the series “in vitro [2]”, 104 ± 9.3%.
Turning to `Nc1nnc(-c2cccc([N+](=O)[O-])c2)s1` [1k], the inhibition at 10 µM is 7 ± 5.8% at hERG; -5.7 ± 12.9% with 786-O; -28.3 ± 17.9% on CYP2C19; 12.5 ± 6.8% on CYP2C9; -14.2 ± 13.2% at CYP3A4; -49.3 ± 17.6% on CYP2D6. Moreover, at CYP1A2, the inhibition at 10 µM came out at 31.1 ± 2.7%. In addition, the inhibition at 50 µM on TbPTR1 is 15.6 ± 1.1%; in series [3] it was 1.4%. Also, the viability at 10 µM in “in vitro [1]” was found to be 108 ± 16.8%; in the series “in vitro [2]” it was 113 ± 1.9%.
`Nc1nnc(Cc2cccc([N+](=O)[O-])c2)s1` [3c]: the inhibition at 10 µM at hERG was -1.8 ± 0.6%; in the series with 786-O, -4.11 ± 5.77%; at CYP2C19, -36.1 ± 11.8%; at CYP2C9, -8.8 ± 3%; at CYP3A4 it was -16.9 ± 5.2%; at CYP2D6 it was -38.6 ± 16.3%. For the same molecule, at CYP1A2, the inhibition at 10 µM is -10.9 ± 1.6%. Moreover, the values for the inhibition at 50 µM (on TbPTR1; in series [3]) were 15.8 ± 0.5% and 0.8%, respectively. Moreover, the values for the viability at 10 µM in the series “in vitro [1]” and in the series “in vitro [2]” were 88.4 ± 11.1% and 117 ± 3.5%, respectively.
As usually defined, the IC50 is the concentration at which inhibition is half-maximal. The low end stands for greater potency in that assay, the high end for weaker potency in that assay. As to `Nc1nnc(NCCCc2ccccc2)s1` [4q, N2G(3Gphenylpropyl)G1,3,4GthiadiazoleG2,5Gdiamine], the inhibition at 10 µM at hERG was determined as 81.1 ± 11.6%; in the series on 786-O, 5.6 ± 18%; on CYP2C19, 17.3 ± 4.6%; at CYP2C9 it was 18.6 ± 4.5%; at CYP3A4 it was 24.2 ± 4.7%; on CYP2D6, 100.2 ± 0.4%. Moreover, at CYP1A2, the inhibition at 10 µM turned out to be 22.1 ± 2.7%. Also, the values for the inhibition at 50 µM (at TbPTR1; in [3]) were 30 ± 1.9% and under 0%, respectively. The molecule further had a concentration for half-maximal inhibition (IC50) against TbPTR1 (dose-response 0.001-100 μM) of 57 µM. In addition, the viability at 10 µM amounted to 111 ± 43.7% in “in vitro [1]” and 106 ± 3.7% in the series “in vitro [2]”.
Turning to `CN(C)C(=O)NCc1ccc(-c2nnc(N)s2)cc1` [1p], the inhibition at 10 µM amounted to 6.4 ± 1.9% at hERG; 11.6 ± 10.1% in the series with 786-O; 9.4 ± 6.5% at CYP2C19; 36.6 ± 0.6% on CYP2C9; 15.1 ± 9.9% on CYP3A4; 18.5 ± 2.7% on CYP2D6. For the same molecule, the inhibition at 10 µM at CYP1A2 stood at 20.9 ± 3.3%. In addition, the inhibition at 50 µM was 5.3 ± 0.9% at TbPTR1 and under 0% in [3]. Also, the viability at 10 µM in “in vitro [1]” was determined as 118 ± 24.8%; in the series “in vitro [2]” it was 108.7 ± 0.45%.
`Cc1nnc(N)s1` [3a]: the inhibition at 10 µM at hERG was 8.2 ± 6.6%; with 786-O, -4.4 ± 14.3%; on CYP2C19, -35.5 ± 2.4%; on CYP2C9 it was -10.9 ± 5%; at CYP3A4, -22.3 ± 9%; at CYP2D6, -46 ± 4.5%. On CYP1A2, the inhibition at 10 µM was -6.6 ± 2.1%. Further, the inhibition at 50 µM on TbPTR1 was 5.4 ± 0.7%; in [3], under 0%. Also, the viability at 10 µM in “in vitro [1]” was determined as 130 ± 5.8%; in “in vitro [2]”, 130 ± 19.1%.
With `Cc1ccc(CNc2nnc(N)s2)cc1` [4l], the inhibition at 10 µM on hERG is 77.4 ± 1.5%; in the series with 786-O, -5.3 ± 14.7%; at CYP2C19, -6.7 ± 11.4%; on CYP2C9, 14.2 ± 3.9%; on CYP3A4, 26.9 ± 4.7%; on CYP2D6, 98.7 ± 1%. Besides, on CYP1A2, the inhibition at 10 µM stood at 17.3 ± 3.2%. For the same molecule, the inhibition at 50 µM at TbPTR1 stood at 18.6 ± 0.8%; in series [3], 10.8%. The viability at 10 µM was 106 ± 13.2% in “in vitro [1]” and 104.6 ± 0.5% in the series “in vitro [2]”.
On to `COc1ccc(CNc2nnc(N)s2)cc1OC` [4j], for which the inhibition at 10 µM at hERG was 35.7 ± 7.1%; in the series with 786-O, -8.3 ± 4.5%; on CYP2C19 it was 5.7 ± 7.4%; at CYP2C9, 26.2 ± 1.3%; at CYP3A4, 18.6 ± 4.2%; on CYP2D6, 36.5 ± 4.4%. Moreover, the inhibition at 10 µM at CYP1A2 was found to be 23.9 ± 4.8%. In addition, the values for the inhibition at 50 µM (at TbPTR1; in series [3]) were 8.4 ± 1.2% and 45.1%, respectively. For the same molecule, the viability at 10 µM in “in vitro [1]” was determined as 129 ± 57.4%; in the series “in vitro [2]”, 118 ± 3.9%.
`Nc1nnc(NCc2ccccc2Cl)s1` [4d]: the inhibition at 10 µM is 15.2 ± 3.6% at hERG; -1.6 ± 9.3% in the series with 786-O; -13.3 ± 10.3% on CYP2C19; 13.9 ± 3.5% on CYP2C9; 10.1 ± 10.7% at CYP3A4; 90.3 ± 0.9% on CYP2D6. At CYP1A2, the inhibition at 10 µM was found to be 28.2 ± 1.2%. For the same molecule, the inhibition at 50 µM at TbPTR1 was 21.8 ± 2.2%; in series [3] it was under 0%. Also, the viability at 10 µM in “in vitro [1]” came out at 55.4 ± 2.4%; in the series “in vitro [2]”, 115 ± 8.9%.
